# Assay results reported in patent publication US10676470B2, “Inhibitors of lysine gingipain” (priority 2014, dated 2020).
# Entries after “also recorded” stand apart in the source; their conditions may differ.
# Columns and labels:
# [1] = system: differentiated SHSY-5Y cells; test: Gingipain-induced death of differentiated SH-SY5Y cells; type: cell-based; settings: 100 nM Kgp and/or RgpB for 24 hours
# Description: SH-SY5Y neuroblastoma cells were cultured and differentiated in the presence of 5 uM retinoic acid based on established methods [Saberi S., et al. Cell Mol Neurobiol 2013. 33: 747-751]. Differentiation into neuronal cells was verified by observation of neurite outgrowth. The differentiated cells were exposed to 100 nM Kgp and/or RgpB for 24 hours, in the presence or absence of Kgp inhibitors. Results were recorded using a digital microscope camera (FIG. 1C, FIG. 2C). Gingipains are toxic to cells while COR compounds prevent the cytotoxicity.
# abeta 42 = test: Brain abeta 42 ELISA in mice orally infected with P. gingivalis; type: in vivo; settings: Balb/cJ mice, oral W83 P. gingivalis for 42 days; compound subcutaneously three times per day on days 21-42
# Source text: Female Balb/cJ mice were obtained from Taconic and allowed to acclimate. 43-44 week old mice were challenged orally with 10^9 CFU W83 P. gingivalis or a P. gingivalis strain lacking expression of Kgp every other day for 42 days. Compound 2 or vehicle (2% DMSO) was given subcutaneously three times per day on days 21-42. On day 42 mice were sacrificed and the brain removed and frozen. A sample including hippocampal tissue was lysed in RIPA buffer with protease inhibitors and analyzed for Abeta42 expression with the Amyloid beta 42 ELISA Kit, Mouse (Life Technologies).
# lysine gingipain (Kgp) = lysine gingipain (Kgp) (Porphyromonas gingivalis (strain ATCC 33277 / DSM 20709 / CIP 103683 / JCM 12257 / NCTC 11834 / 2561), UniProt B2RLK2); test: Fluorogenic lysine gingipain inhibition assay; type: biochemical; settings: 0.1 nM Kgp, 10 uM Z-His-Glu-Lys-MCA, 90 minutes, 37° C., pH 7.5
# Description: The capacities of compounds of the present invention to inhibit the activity of lysine gingipain were measured in a fluorogenic assay similar to those described in Barret Biochemical Journal. 1980, 187(3), 909. The specific assay conditions were as follows. Buffer: pH=7.5, 100 mM Tris-HCl, 75 mM NaCl, 2.5 mM CaCl2, 10 mM cysteine, 1% DMSO after all additions. Protein: 0.1 nM Kgp, isolated from culture of Porphyromonas gingivalis, as described in Pike et al. J. Biol. Chem. 1994, 269(1), 406, and Potempa and Nguyen. Current Protocols in Protein Scienc. 2007, 21.20.1-21.20.27. Fluorogenic substrate: 10 uM Z-His-Glu-Lys-MCA. Time=90 minutes. Temperature=37° C. Each compound: 10 concentrations, starting at either 100 uM or 100 nM, with lower concentrations generated by serial 3-fold dilutions. By testing a range of concentrations for each compound, the concentration required to inhibit the activity of lysine gingipain by 50% (the “IC50”) was determined. Under the described assay conditions, signal-to-noise was excellent, and Z factor was greater than 0.6.
# The inhibitory of activity of compounds described herein was tested against Kgp, RgpB, and trypsin.
# SHSY5Y cells = test: P. gingivalis-induced toxicity in SHSY5Y cells; type: cell-based; settings: SHSY5Y cells in vitro, compared to the antibiotic moxifloxacin
Structure (SMILES),prevention of gingipain-induced cell death [1],other results
"NCCCC[C@H](NC(=O)c1ccccc1)C(=O)c1nc2ccccc2s1 [Compound 1, N-[(1S)-5-amino-1-(1,3-benzothiazole-2-carbonyl)pentyl]benzamide]",prevents gingipain-induced death; also recorded: effective at preventing cell death,–
"NCCCC[C@H](NC(=O)C1CCCCC1)C(=O)c1nc2ccccc2s1 [Compound 2, N-[(1S)-5-amino-1-(1,3-benzothiazole-2-carbonyl)pentyl]cyclohexanecarboxamide]",prevents gingipain-induced death; also recorded: more effective; also recorded: effective at preventing cell death,brain levels of abeta 42 (ELISA) (abeta 42): resolved; also recorded: increase in abeta42 that was not apparently
"NCCCC[C@H](NC(=O)[C@H]1CCCN(C(=O)CCc2ccccc2)C1)C(=O)c1nc2ccccc2s1 [Compound 3, (3S)—N-[(1S)-5-amino-1-(1,3-benzothiazole-2-carbonyl)pentyl]-1-(3-phenylpropanoyl)piperidine-3-carboxamide]",does not,–
"NCCCC[C@H](NC(=O)[C@@H]1CCCN(C(=O)CCc2ccccc2)C1)C(=O)c1nc2ccccc2s1 [Compound 4, (3R)—N-[(1S)-5-amino-1-(1,3-benzothiazole-2-carbonyl)pentyl]-1-(3-phenylpropanoyl)piperidine-3-carboxamide]",prevents gingipain-induced death,IC50 (lysine gingipain (Kgp)): 1 to 10 nM; prevention of gingipain-induced cell death ([1]; listed as 2-(N—[N-(3-phenylpropanoyl)-(R)-nipecotinyl]-(R)-lysinyl)-benzothiazole): effective at preventing cell death
"NCCCC[C@H](NC(=O)C1CCCC1)C(=O)COc1c(F)c(F)cc(F)c1F [Compound 43, N-[(1S)-5-amino-1-[2-(2,3,5,6-tetrafluorophenoxy)acetyl]pentyl]cyclopentanecarboxamide]",–,protection from P. gingivalis-induced toxicity (SHSY5Y cells): protects SHSY5Y cells from P. gingivalis-induced toxicity
